According to patent publication US20260250278A1, “PHENYL-SUBSTITUTED DIHYDRONAPHTHYRIDINE COMPOUNDS, AND PREPARATION AND USE THEREOF” (SUZHONG PHARMACEUTICAL GROUP CO., LTD., priority 2022, published 2026):
pIC50: −log10 of the molar value.

How the values were obtained:
[1] = Pharmacokinetic test of rats (intravenous and intragastric administration); assay type: in vivo; conditions: SD rats; for AUC(0-t) / Cmax / clearance / half-life: rat, plasma
Procedure: This experiment was intended to evaluate a pharmacokinetic behavior of an implementing compound after intravenous injection or intragastric administration in the rats. Intravenous injection administration: a test compound was prepared into 0.2 mg/mL clear solution, a solvent was 10% ethanol, 40% polyethylene glycol 400 and 50% water, and after administration, plasma was collected 0.083 hour, 0.25 hour, 0.5 hour, 1 hour, 2 hours, 4 hours, 8 hours and 24 hours later. Intragastric administration: a test compound was prepared into 1 mg/mL clear solution, a solvent was 10% ethanol/40% polyethylene glycol 400/50% water, and after administration, plasma was collected 0.25 hour, 0.5 hour, 1 hour, 2 hours, 4 hours, 8 hours and 24 hours later.
A concentration of the test compound in the plasma was determined by high-performance liquid chromatography-tandem mass spectrometry (LC-MS/MS). Retention time, chromatogram collection and chromatogram integration of compounds and internal standards were treated by software Analyst (Applied Biosystems), and data statistics was treated by software Analyst (Applied Biosystems).
A plasma concentration was treated by a non-atrioventricular model of Winnonlin™ Version 6.1 (Pharsight, Mountain View, CA) pharmacokinetic software, and pharmacokinetic parameters were calculated by a linear logarithmic trapezoid method.
Pharmacokinetic parameters of the compounds in the rats with an intravenous injection dose of 1 mg/kg and an intragastric and oral dose of 5 mg/kg were as shown in Table 20 below.

[2] = tested on: diabetic nephropathy mouse model; assay: Pharmacodynamic effects on diabetic nephropathy mouse model; assay type: in vivo; conditions: KK-Ay mice
Procedure: The pharmacodynamic effects of the compounds 36 and 62 on the diabetic nephropathy mouse model were evaluated.
• Strain: C57BL/6 mice, and KK-Ay mice • Weeks of age: the animals were raised to 6 weeks to 8 weeks of age, and the experiment was started when the animals were 7 weeks to 9 weeks of age • Sex: male • Weight: C57BL/6 mice: 21 g to 23 g, and KK-Ay mice: 25 g to 30 g • Number: 72 experimental animals
On the day of administration, the animals were randomly divided into 9 groups according to their weights, comprising a model group (KK-Ay+solvent), a Finerenone group (KK-Ay+Finerenone: 3 mg/kg), a low-dose compound 62 group (KK-Ay+compound 62: 1 mg/kg), a middle-dose compound 62 group (KK-Ay+compound 62: 3 mg/kg) and high-dose compound 62 group (KK-Ay+compound 62: 10 mg/kg), a low-dose compound 36 group (KK-Ay+compound 36: 1 mg/kg), a middle-dose compound 36 group (KK-Ay+compound 36: 3 mg/kg) and a high-dose compound 36 group (KK-Ay+compound 36: 10 mg/kg). Specific grouping and administration schemes referred to Table 70-2.
When the experiment was started, 24-hour urine of the mice was collected by a metabolic cage in 2nd, 4th, 6th and 8th weeks before and after modeling, and microalbumin (MALB) and creatinine (CREA) contents of the urine were detected by CANON TBA-120FR automatic blood biochemistry to calculate (MALB/CREA).
When the experiment was ended, the mice were euthanized, the blood was taken by heart puncture and put into an anticoagulant-free EP tube, allowed to stand at room temperature for 0.5 hour, and then centrifuged at 4° C. and 6000 g for 15 minutes, and the serum was collected and transferred to a new EP tube, and stored in a refrigerator at −80° C. An insulin content of the serum and serum ions were detected by an ELISA method.
After the experiment was ended, the kidneys of all animals were dissected and collected, fixed in formalin, embedded and made into sections for PAS staining and Masson staining, and then quantitatively analyzed.
Experimental results were expressed as “mean value±standard deviation”. The data of each group were statistically analyzed by GraphPad 8.0 software, and p<0.05 was considered to be statistically significant.

CYP3A4 = CYP3A4 (Homo sapiens, UniProt P08684); assay: biochemical; assay type: in vitro ADME
[3] = mouse, in vivo
Source text: In particular, a maximum tolerated dose of the compound 36 after repeated administration for 14 days is more than 2.7 times that of the compound 62, especially a safety window of the dose is more than 230 times that of the equivalent dose, so that the compound has high safety.

[4] = intragastric and oral administration 5 mg/kg
[5] = CYP3A4-5M IC50, human CYP3A4, CYP3A4-5M
[6] = CYP3A4-5T IC50, human CYP3A4, CYP3A4-5T

Sequence of CYP3A4 (P08684 2-503 limits assumed): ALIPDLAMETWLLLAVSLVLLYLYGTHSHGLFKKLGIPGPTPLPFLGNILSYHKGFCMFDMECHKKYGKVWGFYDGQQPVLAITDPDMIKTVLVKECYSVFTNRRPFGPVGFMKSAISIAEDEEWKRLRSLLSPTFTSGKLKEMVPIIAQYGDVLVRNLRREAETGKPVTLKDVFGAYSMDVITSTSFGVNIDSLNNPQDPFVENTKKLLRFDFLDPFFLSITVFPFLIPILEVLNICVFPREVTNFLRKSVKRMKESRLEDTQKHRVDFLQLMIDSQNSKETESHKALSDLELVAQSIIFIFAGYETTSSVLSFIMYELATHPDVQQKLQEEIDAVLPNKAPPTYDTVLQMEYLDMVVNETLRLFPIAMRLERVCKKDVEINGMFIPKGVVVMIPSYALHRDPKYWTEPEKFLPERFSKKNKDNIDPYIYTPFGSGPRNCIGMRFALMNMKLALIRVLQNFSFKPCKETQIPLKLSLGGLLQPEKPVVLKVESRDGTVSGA

| Structure (SMILES) | F [1, 4] | AUC(0-t) [1, 4] | Cmax [1, 4] | AUC(0-t) ([1]; intravenous 1 mg/kg) | clearance ([1]; intravenous 1 mg/kg) | half-life ([1]; intravenous 1 mg/kg) | diabetic nephropathy and hypertension [2] | urinary protein/creatinine ratio [2] | urinary sodium excretion [2] | inhibitory effect on CYP3A4 (CYP3A4) | pIC50 (CYP3A4; [5]) | pIC50 (CYP3A4; [6]) | maximum tolerated dose after repeated administration for 14 days, relative to compound 62 [3] | safety window of the dose relative to the equivalent dose ([3]; 14 days) | maximum tolerated dose after repeated administration for 14 days (safety in words) [3] |
| --- | --- | --- | --- | --- | --- | --- | --- | --- | --- | --- | --- | --- | --- | --- | --- |
| CCOc1ncc(C)c2c1[C@H](c1ccc(C#N)c3c1OCC3)C(C(N)=O)=C(C)N2 [Example 36, (S)-4-(4-cyano-2,3-dihydrobenzofuran-7-yl)-5-ethoxy-2,8-dimethyl-1,4-dihydro-1,6-naphthyridine-3-formamide] | 73.74% | 365 µg·h/mL | 37000 ng/mL | 94.1 µg·h/mL | 0.14 mL/min/kg | 12.1 h | improve | significantly reduce | significantly promote | small inhibitory effect | 4.64 | 4.80 | more than 2.7 times that of the compound 62 | more than 230 times that of the equivalent dose |  |
| CCOc1ncc(C)c2c1[C@H](c1ccc(C#N)c3c1OCO3)C(C(N)=O)=C(C)N2 [Example 62, (S)-4-(7-cyanobenzo[d][1,3]dioxol-4-yl)-5-ethoxy-2,8-dimethyl-1,4-dihydro-1,6-naphthyridine-3-formamide] | 78.09% | 361 µg·h/mL | 24000 ng/mL | 106 µg·h/mL | 0.13 mL/min/kg | 10.1 h | improve | significantly reduce | significantly promote |  | 4.86 | 5.27 |  |  | highly safe |
